Test results as given in article PMC11678245, “The Molecular Basis of the Intrinsic and Acquired Resistance to Azole Antifungals in Aspergillus fumigatus” (Journal of Fungi, 2024).
Several values for one entry are separate records, joined by “and”; a condition that tells them apart may be missing. Equal values may be shown once. Read-outs that look alike come from different tables or passages of the source.

How the values were obtained:
[1] = tested on: S. cerevisiae strain AR (AfCyp51A-6×His, AfCprA2-6×His); test: MIC80 susceptibility, strain AR; format: cell-based, Saccharomyces cerevisiae; settings: Saccharomyces cerevisiae; Table 2; strain AR; SD pH 6.8, 48 h, 30 °C; ± SD; read-out: MIC80
Experimental: (§1) The susceptibilities of S. cerevisiae strains to antifungal drugs were determined as minimum growth inhibitory concentration (MIC) values in 200 μL SD pH 6.8 [24]. Serial 2-fold dilutions of 100 μL of azole or control drugs in SD pH 6.8 were prepared in a 96-well microtiter plate. A portion of a 2 mL SD pH 6.8 overnight culture of the test strain was inoculated into 3 mL fresh SD pH 6.8 and incubated for 4 to 6 h at 30 °C to generate logarithmic-phase cells. These cells were then diluted with fresh SD pH 6.8 to OD600nm = 0.01 (3 × 10^4 CFU), and 100 μL of this cell suspension was added to microtiter plate wells. Cell growth after 48 h incubation at 30 °C with shaking at 200 rpm was determined at 600 nm using a BioTek™ Synergy™ 2 multi-Mode microplate reader controlled using Gen5™ Data Analysis Software version 3.16.10 (BioTek Instruments, Winooski, VT, USA). MIC80 values (80% growth inhibition in the presence of the test drug compared with the untreated control) for each yeast construct were determined as technical triplicates repeated three times for three separate clones.

[2] = tested on: S. cerevisiae strain BR (AfCyp51B-6×His, AfCprA2-6×His); test: MIC80 susceptibility, strain BR; format: cell-based; settings: Saccharomyces cerevisiae; Table 2; strain BR; SD pH 6.8, 48 h, 30 °C; ± SD; read-out: MIC80
Experimental: as §1

[3] = tested on: S. cerevisiae strain ARE I301T (AfCyp51A-6×His I301T, AfCprA2, AfErg6-FLAG); test: MIC80 susceptibility, strain I301T; format: cell-based, Saccharomyces cerevisiae; settings: for MIC80: ± SD
Experimental: as §1

[4] = tested on: S. cerevisiae strain ARE Y121F (AfCyp51A-6×His Y121F, AfCprA2, AfErg6-FLAG); test: MIC80 susceptibility, strain Y121F; format: cell-based, Saccharomyces cerevisiae; settings: for MIC80: Saccharomyces cerevisiae, ± SD, read-out: MIC80
Experimental: as §1

[5] = tested on: S. cerevisiae strain ARE (AfCyp51A-6×His, AfCprA2, AfErg6-FLAG); test: MIC80 susceptibility, strain ARE; format: cell-based, Saccharomyces cerevisiae
Experimental: as §1

[6] = tested on: S. cerevisiae strain ARE Y121F T289A (AfCyp51A-6×His Y121F T289A, AfCprA2, AfErg6-FLAG); test: MIC80 susceptibility, strain Y121F T289A; format: cell-based, Saccharomyces cerevisiae; settings: for MIC80: Saccharomyces cerevisiae, ± SD, read-out: MIC80
Experimental: as §1

[7] = tested on: S. cerevisiae Y2300 ADΔΔ CYP51 (ScCYP51); test: MIC80 susceptibility, strain Y2300 (Table S1); format: cell-based, Saccharomyces cerevisiae; settings: Saccharomyces cerevisiae
Experimental: as §1, with “clones. […]” for “clones.”
(§2) Table S1. Azole susceptibilities of ScCYP51 and ScCYP51 T322I expressed
(§3) Data for each strain was obtained for […] in three biological replicates.

[8] = tested on: S. cerevisiae strain ADLS overexpressing ScCYP51-6×His; test: MIC80 susceptibility, strain ADLS; format: cell-based, Saccharomyces cerevisiae; settings: for MIC80: Saccharomyces cerevisiae, Table 2, strain ADLS, SD pH 6.8, 48 h, 30 °C, ± SD, read-out: MIC80
Experimental: as §1

[9] = tested on: S. cerevisiae strain ARE T289A (AfCyp51A-6×His T289A, AfCprA2, AfErg6-FLAG); test: MIC80 susceptibility, strain T289A; format: cell-based, Saccharomyces cerevisiae; settings: for MIC80: ± SD
Experimental: as §1

[10] = tested on: S. cerevisiae strain ADΔΔ (native ScCYP51); test: MIC80 susceptibility, host strain ADΔΔ; format: cell-based; settings: Saccharomyces cerevisiae, Table 2, SD pH 6.8, 48 h, 30 °C
Experimental: as §1

[11] = tested on: S. cerevisiae Y2305 ADΔΔ CYP51 T322I (ScCYP51 T322I); test: MIC80 susceptibility, strain Y2305 (Table S1); format: cell-based, Saccharomyces cerevisiae; settings: Saccharomyces cerevisiae, read-out: MIC80
Experimental: as §1, with “clones. […]” for “clones.”
as §2, §3

[12] = tested on: S. cerevisiae strain A (AfCyp51A-6×His, native ScCyp51 retained); test: MIC80 susceptibility, strain A; format: cell-based; settings: Saccharomyces cerevisiae, Table 2, SD pH 6.8, 48 h, 30 °C
Experimental: as §1

[13] = Saccharomyces cerevisiae, 48 h, pH 6.8, Table 2, strain I301T, SD pH 6.8, 48 h, 30 °C, read-out: MIC80
[14] = Table 2, strain Y121F, SD pH 6.8, 48 h, 30 °C
[15] = Table 2, strain Y121F T289A, SD pH 6.8, 48 h, 30 °C
[16] = Saccharomyces cerevisiae, 48 h, pH 6.8, Table 2, strain T289A, SD pH 6.8, 48 h, 30 °C, read-out: MIC80

| Compound | MIC80 [1] [µM] | MIC80 [2] [µM] | MIC80 [3, 13] [µM] | MIC80 [4, 14] [µM] | increase in resistance (MIC80) of strain Y121F T289A compared with strain BRE [6] [fold] | increase in resistance (MIC80) of strain Y121F T289A compared with strain T289A [6] [fold] | MIC80 [6, 15] [µM] | MIC80 [7] [µM] | MIC80 [8] [µM] | greater susceptibility (MIC80) of strain T289A compared with strain ARE [9] [fold] | MIC80 [9, 16] [µM] | MIC80 [10] [µM] | MIC80 [11] [µM] | MIC80 [12] [µM] | other results |
| --- | --- | --- | --- | --- | --- | --- | --- | --- | --- | --- | --- | --- | --- | --- | --- |
| OC(Cn1cncn1)(Cn1cncn1)c1ccc(F)cc1F [FLC, fluconazole] | 6.5 ± 0.7 | 2.9 ± 0.4 | 77.2 ± 5.9 | 263 ± 31.6 | 106 | 53 | 1060 ± 60 | 6.2 ± 0.3 | 8 ± 0.2 | 11 | 21.3 ± 2.7 | 3.3 ± 0.2 | 6.6 ± 0.2 | 3.8 ± 0.2 | greater susceptibility (MIC80) of strain I301T compared with strain ARE [3]: 3 fold; MIC80 ([3]; Saccharomyces cerevisiae, Table 3, strain ARE I301T, read-out: MIC80): 65 ± 14 µM; MIC80 ([4]; Table 3, strain ARE Y121F): 157 ± 33 µM; MIC80 ([5]; Saccharomyces cerevisiae, 48 h, pH 6.8): 227 ± 19 µM; MIC80 ([5]; Saccharomyces cerevisiae, Table 3, strain ARE, ± SD, read-out: MIC80): 151 ± 66 µM; MIC80 ([5]; Table 2, strain ARE, SD pH 6.8, 48 h, 30 °C, ± SD): 227 ± 18 µM and 227 ± 18.5 µM; increase in resistance (MIC80) of strain Y121F T289A compared with strain ARE [6]: 5 fold; increase in resistance (MIC80) of strain Y121F T289A compared with strain Y121F [6]: 4 fold; MIC80 ([6]; Table 3, strain ARE Y121F T289A): 725 ± 65 µM; MIC80 of strain ADLS relative to strain ADΔΔ ([8]; higher): 3 fold; MIC80 ([9]; Saccharomyces cerevisiae, Table 3, strain ARE T289A, read-out: MIC80): 12 ± 2 µM; MIC80 of strain T289A relative to strain ADΔΔ ([9]; higher): 7 fold |
| C[C@@H](c1ncncc1F)[C@](O)(Cn1cncn1)c1ccc(F)cc1F [VCZ, voriconazole] | 0.11 ± 0.02 | 0.07 ± 0.01 | < 0.12 | 2.07 ± 0.21 | 4 | 4 | 2.86 ± 0.22 | 0.71 ± 0.03 | 0.17 ± 0.03 | 2.5 | < 0.12 | 0.06 | 0.8 ± 0.03 | 0.08 ± 0.01 | MIC80 ([3]; Table 2, strain I301T, SD pH 6.8, 48 h, 30 °C): 0.11 ± 0.00 µM; increase in resistance (MIC80) of strain Y121F compared with strain ARE [4]: > 8 fold and 8 fold; MIC80 ([5]; Saccharomyces cerevisiae, Table 2, strain ARE, SD pH 6.8, 48 h, 30 °C, ± SD, read-out: MIC80): 0.27 ± 0.03 µM; MIC80 of strain ARE relative to strain ADΔΔ ([5]; higher): 4- to 5 fold; MIC80 ([9]; Table 2, strain T289A, SD pH 6.8, 48 h, 30 °C): 0.11 ± 0.00 µM |
